In patent US11136348B2, “Furostan-3-ol derivatives as skeletal muscle hypertrophic agents” (EMMYON, INC., priority 2015, dated 2021):

Experiments:
[1] = tested on: Male C57BL/6 mice, tibialis anterior (TA) muscle; assay: Mouse model of muscular atrophy: unilateral tibialis anterior immobilization; type: in vivo; conditions: 10 mg/kg i.p. twice a day for 7 days; 6 days TA immobilization; immobilized TA weight normalized to contralateral mobile TA; 12-13 mice
Protocol: Compounds of the invention were also tested in vivo in an established mouse model for muscular atrophy. Male C57BL/6 mice (8-10 weeks old) were administered i.p. injections of vehicle (corn oil) or 10 mg/kg test compound twice a day for 7 days. After 1 day of i.p. injections, one tibialis anterior (TA) muscle in each mouse was immobilized with a metal clip to induce skeletal muscle atrophy, as described previously (Dyle et al., Journal of Biological Chemistry 289: 14913-14924, 2014). In each mouse, the contralateral TA muscle remained mobile and served as a non-atrophied intrasubject control. After 7 days of i.p injections (6 days of unilateral TA immobilization), bilateral TA muscles were harvested and weighed. In each mouse, the amount of skeletal muscle loss in the immobilized TA muscle was determined by normalizing the weight of the immobilized TA muscle to the weight of the contralateral mobile (control) TA muscle. The data below are means ±SEM from 12-13 mice per condition. table: […]

C2C12 skeletal myotubes = assay: Total cellular protein content in C2C12 skeletal myotubes (BCA); type: cell-based, Mouse; conditions: 48 h incubation, vs vehicle (0.1% DMSO); for Percent change in total protein at 0.03 µM / Percent change in total protein at 0.1 µM / Percent change in total protein at 0.3 µM / Percent change in total protein at 1 µM / Percent change in total protein at 3 µM: Mus musculus, C2C12
Protocol: The compounds were tested in a well-established in vitro model of skeletal muscle, namely fully differentiated, post-mitotic C2C12 skeletal myotubes. Mouse C2C12 myoblasts may be obtained from ATCC (CRL-1772) and maintained at 37° C. and 5% CO2 in Dulbecco's modified Eagle's medium (ATCC #30-2002) containing antibiotics (100 units/mL penicillin, […] streptomycin sulfate) and 10% (v/v) fetal bovine serum (FBS). Myoblasts were set up for experiments on day 0 in 6-well plates at a density of 2.5×10^5 cells/well. On day 2, myoblasts were induced to differentiate into myotubes by replacing 10% FBS with 2% horse serum (HS). On day 7, myotubes were rinsed once with PBS, and then 2% HS was replaced with 10% FBS. The vehicle (0.1% DMSO) or varying concentrations of test compound were added directly to the media. After 48 h incubation, myotube protein content and size were measured.
To determine myotube protein content, myotubes were washed with ice cold PBS, scraped into lysis buffer (10 mM Tris-HCl, pH 7.6, 100 mM NaCl, and 1% (w/v) SDS, complete Mini protease inhibitor cocktail (Roche), and a 1:100 dilution of phosphatase inhibitor cocktail 3 (Sigma)), and then lysed with 10 passes through a 22-gauge needle. An aliquot of each myotube lysate sample was then used to determine protein concentration by the BCA kit (Pierce). […] To determine myotube size, myotubes were subjected to immunofluorescence staining with anti-troponin primary antibody and a fluorescent secondary antibody. Myotubes were then imaged on an Olympus IX-71 microscope equipped with a DP-70 camera and epifluorescence filters. Image analysis was performed using ImageJ software.

SMILES	% Muscle Loss (Mean ± SEM) [1] [%]	Percent change in total protein at 0.03 µM (C2C12 skeletal myotubes; 0.03 μM) [%]	Percent change in total protein at 0.1 µM (C2C12 skeletal myotubes; 0.1 μM) [%]	Percent change in total protein at 0.3 µM (C2C12 skeletal myotubes; 0.3 μM) [%]	Percent change in total protein at 1 µM (C2C12 skeletal myotubes; 1 μM) [%]	Percent change in total protein at 3 µM (C2C12 skeletal myotubes; 3 μM) [%]	Percent Change in Total Protein (C2C12 skeletal myotubes; 0.03 μM) [%]	Percent Change in Total Protein (C2C12 skeletal myotubes; 0.1 μM) [%]	Percent Change in Total Protein (C2C12 skeletal myotubes; 0.3 μM) [%]	Percent Change in Total Protein (C2C12 skeletal myotubes; 1 μM) [%]	Percent Change in Total Protein (C2C12 skeletal myotubes; 3 μM) [%]
CC(=O)NC[C@@H](C)CCC1=C(C)[C@H]2[C@H](C[C@H]3[C@@H]4CC[C@H]5C[C@@H](OC(C)=O)CC[C@]5(C)[C@H]4CC[C@@]32C)O1 [Example 1, (2aS,4S,6aS,6bS,8aS,8bS,11aS,12aS,12bR)-10-((S)-4-acetamido-3-methylbutyl)-6a,8a,9-trimethyl-2,2a,3,4,5,6,6a,6b,7,8,8a,8b,11a,12,12a,12b-hexadecahydro-1H-naphtho[2′,1′:4,5]indeno[2,1-b]furan-4-yl acetate]	4.8 ± 1.4	1 ± 1.1	5.6 ± 3.3	10.7 ± 1.9	16.7 ± 1.3	18.1 ± 0.5					
CC1=C(CC[C@H](C)CNC(=O)OC(C)(C)C)O[C@H]2C[C@H]3[C@@H]4CC[C@H]5C[C@@H](O)CC[C@]5(C)[C@H]4CC[C@]3(C)[C@@H]12 [Example 2, tert-Butyl ((S)-4-((2aS,4S, 6aS,6bS, 8aS, 8bS,11aS,12aS,12bR)-4-hydroxy-6a, 8a,9-trimethyl-2,2a,3 ,4,5,6,6a,6b,7,8,8a, 8b,11a,12,12a,12b-hexadecahydro-1H-naphtho[2′,1′:4,5]indeno[2,1-b]furan-10-yl)-2-methylbutyl)carbamate]	8.6 ± 1.8	3.2 ± 2.1	3.2 ± 3	4.9 ± 3.9	8.3 ± 3.8	10.8 ± 3					
CC1=C(CC[C@H](C)CN)O[C@H]2C[C@H]3[C@@H]4CC[C@H]5C[C@@H](O)CC[C@]5(C)[C@H]4CC[C@]3(C)[C@@H]12.Cl [Example 3, (2aS,4S,6aS,6bS,8aS,8bS,11aS,12aS,12bR)-10-((S)-4-Amino-3-methylbutyl)-6a,8a,9-trimethyl-2,2a,3,4,5,6,6a,6b,7,8,8a,8b,11a,12,12a,12b-hexadecahydro-1H-naphtho[2′,1′:4,5]indeno[2,1-b]furan-4-ol hydrochloride]	8.3 ± 1.9						3.8 ± 1.8	6.7 ± 2.4	9.2 ± 2.4	16.4 ± 1.3	17.9 ± 0.7
CC(=O)O[C@H]1CC[C@@]2(C)[C@@H](CC[C@@H]3[C@@H]2CC[C@@]2(C)[C@H]3C[C@@H]3OC(CC[C@H](C)CNC(=O)OC(C)(C)C)=C(C)[C@@H]32)C1 [Example 4, (2aS,4S,6aS,6bS,8aS,8bS,11aS,12aS,12bR)-10-((S)-4-((tert-butoxycarbonyl)amino)-3-methylbutyl)-6a,8a,9-trimethyl-2,2a,3,4,5,6,6a,6b,7,8,8a,8b,11a,12,12a,12b-hexadecahydro-1H-naphtho[2′,1′:4,5]indeno[2,1-b]furan-4-yl acetate acetate]		4.3 ± 1.6	4 ± 2.1	11.2 ± 2.3	13.4 ± 1.5	11.4 ± 2.9					
CC1=C(CC[C@H](C)CNC(=O)OCC(C)C)O[C@H]2C[C@H]3[C@@H]4CC[C@H]5C[C@@H](O)CC[C@]5(C)[C@H]4CC[C@]3(C)[C@@H]12 [Example 6, Isobutyl ((S)-4-((2aS,4S,6aS,6bS, 8aS, 8bS,11aS,12aS,12bR)-4-hydroxy-6a, 8a,9-trimethyl-2,2a,3,4,5,6,6a,6b,7,8,8a, 8b,11a,12,12a,12b-hexadecahydro-1H-naphtho[2′,1′:4,5]indeno[2,1-b]furan-10-yl)-2-methylbutyl)carbamate]		1.1 ± 0.8	-0.1 ± 3.1	4.2 ± 3.2	10.9 ± 3.1	9 ± 1.6					
CC1=C(CC[C@H](C)CNC(C)C)O[C@H]2C[C@H]3[C@@H]4CC[C@H]5C[C@@H](O)CC[C@]5(C)[C@H]4CC[C@]3(C)[C@@H]12 [Example 7, (2aS,4S,6aS,6bS,8aS,8bS,11aS,12aS,12bR)-10-((S)-4-(Isopropylamino)-3-methylbutyl)-6a,8a,9-trimethyl-2,2a,3,4,5,6,6a,6b,7,8,8a,8b,11a,12,12a,12b-hexadecahydro-1H-naphtho[2′,1′:4,5]indeno[2,1-b]furan-4-ol]		-0.9 ± 1.5	0.5 ± 1.9	11.6 ± 2.3	11 ± 1.9	12.2 ± 3.2					
CC1=C(CC[C@H](C)CN(C)C)O[C@H]2C[C@H]3[C@@H]4CC[C@H]5C[C@@H](O)CC[C@]5(C)[C@H]4CC[C@]3(C)[C@@H]12 [Example 8, (2aS,4S,6aS,6bS,8aS,8bS,11aS,12aS,12bR)-10-((S)-4-(Dimethylamino)-3-methylbutyl)-6a,8a,9-trimethyl-2,2a,3,4,5,6,6a,6b,7,8,8a,8b,11a,12,12a,12b-hexadecahydro-1H-naphtho[2′,1′:4,5]indeno[2,1-b]furan-4-ol]		0.5 ± 2.1	5 ± 1.9	9.7 ± 0.7	10.7 ± 1.6	9.1 ± 1.2					
CC1=C(CC[C@H](C)CNC(C)C(F)F)O[C@H]2C[C@H]3[C@@H]4CC[C@H]5C[C@@H](O)CC[C@]5(C)[C@H]4CC[C@]3(C)[C@@H]12 (stereo partly drawn) [Example 9, (2aS,4S,6aS,6bS,8aS,8bS,11aS,12aS,12bR)-10-((3S)-4-((1,1-Difluoropropan-2-yl)amino)-3-methylbutyl)-6a,8a,9-trimethyl-2,2a,3,4,5,6,6a,6b,7,8,8a,8b,11a,12,12a,12b-hexadecahydro-1H-naphtho[2′,1′:4,5]indeno[2,1-b]furan-4-ol]		-1.5 ± 2.3	1.2 ± 0.7	8.6 ± 2.5	6.2 ± 2.1	6.9 ± 2.6					
CC1=C(CC[C@H](C)CNC(=O)OC(C)(C)C)O[C@H]2C[C@H]3[C@@H]4CC[C@H]5CC(NCCO)CC[C@]5(C)[C@H]4CC[C@]3(C)[C@@H]12 (stereo partly drawn) [Example 10, tert-Butyl ((2S)-4-((2aS,6aS,6bS,8aS,8bS,11aS,12aS,12bR)-4-((2-hydroxyethyl)amino)-6a,8a,9-trimethyl-2,2a,3,4,5,6,6a,6b,7,8,8a,8b,11a,12,12a,12b-hexadecahydro-1H-naphtho[2′,1′:4,5]indeno[2,1-b]furan-10-yl)-2-methylbutyl)carbamate]		10.3 ± 2.7	10.6 ± 2.2	15 ± 2.2	12.9 ± 1.6	16.1 ± 1.6					
CC1=C(CC[C@H](C)CN)O[C@H]2C[C@H]3[C@@H]4CC[C@H]5CC(NCCO)CC[C@]5(C)[C@H]4CC[C@]3(C)[C@@H]12.Cl.Cl (stereo partly drawn) [Example 11, 2-(((2aS,6aS,6bS,8aS,8bS,11aS,12aS,12bR)-10-((S)-4-amino-3-methylbutyl)-6a,8a,9-trimethyl-2,2a,3,4,5,6,6a,6b,7,8,8a,8b,11a,12,12a,12b-hexadecahydro-1H-naphtho[2′,1′:4,5]indeno[2,1-b]furan-4-yl)amino)ethanol dihydrochloride]							−1.8 ± 2.0	7.7 ± 1.5	6.3 ± 1.9	8.8 ± 2.1	4.9 ± 1.1
